Values quoted from earlier work, collected in publication PMC8513935.

Columns and labels:
[1] = experimental, compiled by the authors from the literature (the ESI cites the sources)
[2] = derived by the authors as gas->solvent minus gas->water (a hypothetical dry solvent; the ESI), not a two-phase measurement; details: Hexadecane, 25 C

log K of transfer, gas to solvent ([1]; Hexadecane, 25 C) [log10 K] | log K of transfer, gas to solvent ([1]; Water, 25 C) [log10 K] | SMILES | other results
3.84 | 4.58 | Oc1cccc(F)c1 | log K of transfer, water to solvent [2]: -0.738 log10 K
3.98 | 3.46 | Cc1ccc(C)nc1 | –
3.84 | 4.54 | Oc1ccc(F)cc1 | log K of transfer, gas to solvent ([1]; 1,2-Dichloroethane, 25 C): 5.25 log10 K; log K of transfer, gas to solvent ([1]; CCl4, 25 C): 4.28 log10 K
3.04 | -1.99 | CCCC(C)CC (centres unmarked) | –
3.27 | 2.41 | CCCC(=O)CC | –
3.51 | -2.18 | CCCCC(C)CC (centres unmarked) | –
4.58 | 6.57 | CCCCNC(C)=O | –
2.79 | -2.11 | CCCC(C)(C)C | –
4 | 3.57 | Cc1ccnc(C)c1 | –
3.83 | 5.74 | CN1CCCC1=O | –
4.31 | 3.83 | Cc1ccncc1C | –
1.15 | -0.364 | CC(C)F | –
3.68 | 3.06 | CCCCC(C)(C)O | –
2.04 | 1.18 | CSC | log K of transfer, gas to solvent ([1]; Hexane, 25 C): 2.17 log10 K
3.84 | 6.72 | CCNC(C)=O | –
3.64 | 0.72 | Fc1ccccc1Cl | –
3.97 | 4.91 | CN1CCCCC1=O | –
4.01 | 0.94 | CCCSCCC | –
3.55 | 0.63 | Fc1ccc(Cl)cc1 | –
3.24 | 3.25 | CCCC(C)(C)O | –
1.59 | 1.54 | CCOC | –
3.53 | 0.65 | Fc1cccc(Cl)c1 | –
4.04 | 3.54 | Cc1cccnc1C | –

More lines, now with the values behind:

SMILES | log K of transfer, gas to solvent ([1]; Hexadecane, 25 C) [log10 K] | log K of transfer, gas to solvent ([1]; Water, 25 C) [log10 K] | other results
CCCF | 1.25 | -0.24 | –
CCCCCF | 2.44 | -0.21 | log K of transfer, water to solvent [2]: 2.65 log10 K
CCCCCCC(C)C | 3.96 | -2.15 | –
NC1CCCCC1 | 3.79 | 3.37 | log K of transfer, water to solvent [2]: 0.426 log10 K
C1CCSC1 | 3.06 | 1.66 | –
OC1CCCCCCC1 | 5.05 | 3.81 | –
CC1CCCCC1=O (centres unmarked) | 4.05 | 3.07 | –
CNC=O | 2.86 | 6.57 | log K of transfer, gas to solvent ([1]; Propanone, 25 C): 5.39 log10 K
C1CCCCCCC1 | 4.33 | -0.63 | –
C[C@@H]1CCCC[C@@H]1C | 3.85 | -1.17 | –
N | 0.319 | 3.19 | log K of transfer, gas to solvent ([1]; 2-Methylpropan-1-ol, 25 C): 1.86 log10 K; log K of transfer, gas to solvent ([1]; Butan-1-ol, 25 C): 1.76 log10 K; log K of transfer, gas to solvent ([1]; Butanone, 25 C): 1.42 log10 K; log K of transfer, gas to solvent ([1]; CCl4, 25 C): 0.79 log10 K; log K of transfer, gas to solvent ([1]; Chlorobenzene, 25 C): 0.999 log10 K; log K of transfer, gas to solvent ([1]; Chloroform, 25 C): 1.77 log10 K; log K of transfer, gas to solvent ([1]; Ethanol, 25 C): 2.01 log10 K; log K of transfer, gas to solvent ([1]; Methanol, 25 C): 2.26 log10 K; log K of transfer, gas to solvent ([1]; Propan-1-ol, 25 C): 1.76 log10 K; log K of transfer, gas to solvent ([1]; Propan-2-ol, 25 C): 1.74 log10 K; log K of transfer, gas to solvent ([1]; Propanone, 25 C): 1.48 log10 K
CCCCCCCCCCCCCCO | 7.63 | 2.26 | log K of transfer, gas to solvent ([1]; Decan-1-ol, 25 C): 8.88 log10 K; log K of transfer, gas to solvent ([1]; Hexan-1-ol, 25 C): 8.94 log10 K; log K of transfer, gas to solvent ([1]; Propan-2-ol, 25 C): 9.05 log10 K
CCCCCCCCCCCO | 6.12 | 2.5 | log K of transfer, gas to solvent ([1]; Decan-1-ol, 25 C): 7.53 log10 K
CCCCCCCCCCCCCO | 7.13 | 2.38 | –
CC(=O)CC(C)C | 3.09 | 2.24 | –
CC1CCCCN1 (centres unmarked) | 3.23 | 3.15 | –
CCCCCCCC(C)C | 4.45 | -2.27 | –
CCCN | 2.14 | 3.22 | log K of transfer, gas to solvent ([1]; 1,2-Dichloroethane, 25 C): 2.96 log10 K; log K of transfer, gas to solvent ([1]; Benzene, 25 C): 2.7 log10 K; log K of transfer, gas to solvent ([1]; CCl4, 25 C): 2.63 log10 K; log K of transfer, gas to solvent ([1]; Chlorobenzene, 25 C): 2.63 log10 K; log K of transfer, gas to solvent ([1]; Chloroform, 25 C): 3.47 log10 K; log K of transfer, gas to solvent ([1]; Cyclohexane, 25 C): 2.24 log10 K; log K of transfer, gas to solvent ([1]; Di-n-butyl ether, 25 C): 2.14 log10 K; log K of transfer, gas to solvent ([1]; Hexane, 25 C): 2.26 log10 K; log K of transfer, gas to solvent ([1]; Toluene, 25 C): 2.57 log10 K
CCCCC1CCCCC1 | 4.8 | -1.44 | –
CC(=O)C1CCCCC1 | 4.62 | 3.28 | –
CCCCCCCCCCCCCCCCCO | 9.16 | 1.9 | –

SMILES | log K of transfer, gas to solvent ([1]; Hexadecane, 25 C) [log10 K] | log K of transfer, gas to solvent ([1]; Water, 25 C) [log10 K] | other results
OC1CCCCCC1 | 4.4 | 4.02 | –
C=CCCCCCCCCC | 5.02 | -1.75 | –
C=CCCCCCCCCCC | 5.51 | -1.87 | –
C=CCCCCCCCC | 4.53 | -1.64 | –
CCF | 0.751 | -0.3 | log K of transfer, gas to solvent ([1]; Tetrahydrofuran, 25 C): 1.31 log10 K
C[C@H]1CC[C@H](C)CC1 | 3.64 | -1.4 | –
CC1CCNCC1 | 3.23 | 3.15 | –
CCCCCCCCN | 4.6 | 2.68 | –
C1C2CC3CC1CC(C2)C3 | 4.93 | 0.12 | –
CCCC1CCCCC1 | 4.31 | -1.32 | –
CCCCCC1CCCC1 | 4.6 | -1.87 | –
CC1CCCNC1 (centres unmarked) | 3.23 | 3.16 | –
COC1CCCCC1 | 3.86 | 2.43 | –
O=C1CCCCCCC1 | 4.98 | 3.38 | –
CC(C)CCC(C)(C)C | 3.57 | -2.15 | –
CCCCCCCCCCCCCCCO | 8.14 | 2.14 | log K of transfer, gas to solvent ([1]; Di-n-butyl ether, 25 C): 9.07 log10 K
CCCCCCCCCCCCCCCCCCCO | 10.2 | 1.66 | –
CCCCN(C=O)CCCC | 5.62 | 4.34 | –
O=C1CCCCCC1 | 4.37 | 3.42 | –
CC(C)(C)C1CCCCC1 | 4.6 | -1.28 | –
OC1CCCC1 | 3.24 | 4.03 | log K of transfer, gas to solvent ([1]; Propanone, 25 C): 4.6 log10 K
